Test results as given in patent US5912266A, “Beta2 integrin cell adhesion molecule inhibitors” (American Home Products Corporation, priority 1997, dated 1999).
Where “and” joins values, the source holds several entries; their conditions need not be identical. Equal entries are not always repeated.

Test system: β2 integrin
Experiment: Adhesion of activated, β2 integrin-expressing HL60 cells to recombinant soluble ICAM-1
Assay type: cell-based, human
Conditions: for Percent Cells Bound: single well
Description: HL60 cells were provided by the American Type Culture Collection (ATCC No. CCL240) and were used between passages 20 to 30 as the control β2 integrin expressing cells, following stimulation for exactly four days in culture media containing dimethylsulfoxide (DMSO). Culture media was comprised of RPMI 1640 (Gibco No. 3201870AJ) supplemented with Penicillin (100 Units/ml)/Streptomycin Sulfate ([…]) (Gibco No. 600-5145AE), L-Glutamine (2 mM) (Gibco No. 320-5030PG), and 10% heat inactivated fetal bovine serum (FBS, Hyclone No. A-1111L). Fetal bovine serum was heat inactivated by incubating in a 56° C. water bath for 30 minutes. Stimulation of the expression of the β2 integrin on HL60 cells was achieved by growing the cells at a density of 2.5×10^5 cells per ml of culture media for four days in the presence of 1.25% DMSO. Following the removal of the DMSO containing media, the β2 integrin on these cells was activated to a high affinity ICAM-1 binding state by the addition of 0.1 nM of (PMA) and PMN Buffer. This buffer was comprised of Hank's balanced salt solution (HBSS) supplemented with 1.2 mM calcium chloride, 1 mM magnesium chloride, 2% glucose, […] HEPES buffer. The ICAM-1 used to measure the adhesion of β2 integrin-bearing cells was obtained from cloning and expression of recombinant, soluble, human ICAM-1 using a baculovirus expression system and standard molecular biology technology. Soluble ICAM-1 was cloned by cleaving ICAM-1 DNA, purchased from R & D Systems, with restriction enzymes to obtain DNA that codes for the soluble (non-membrane) form of the protein. […] The soluble ICAM-1 was purified by passing the media from the ICAM-1 expressing cells over an anti-ICAM-1 antibody-linked sepharose column prepared using a standard immunoaffinity chromatography kit obtained from Pierce Inc.
200 ng of purified, recombinant, soluble ICAM-1 contained in 100 μl of PBS was added to wells of a flat bottom, 96 well EIA/RIA plate (Corning No. 25801), covered with an adhesive backed plate sealer (Linbro No. 76-401-05) and incubated for at least 18 hours at 4° C. to allow ICAM-1 to bind to the assay wells, prior to the addition of the β2 integrin expressing HL60 cells.
HL60 cells were grown in 1.25% DMSO for 4 days and pelleted by centrifugation in a Sorvall RT6000 tabletop centrifuge for 5 minutes, 1000 rotations per minute (rpm), at room temperature. The resulting HL60 cell pellet was resuspended in 50 ml sterile Dulbecco's phosphate buffered saline (dPBS) (Gibco No. 310-4040AJ). The resulting cell pellet was resuspended in 50 ml dPBS and the cell concentration was determined using a hemacytometer. The cells were pelleted as described above and resuspended in PMN Buffer to 15 to 20×10^6 cells/ml. The resuspended HL60 cells were fluorescently labeled by mixing the cells with an equal volume of a 25 μM solution of Calcein AM (Molecular Probes No. C-1430) dye that had been dissolved in PMN Buffer. HL60 cells in the calcein AM solution was incubated in a 37° C. waterbath for 10 minutes with intermittent swirling of the reaction tube. The labeling reaction was stopped by the addition of 13 ml of ice-cold PMN Buffer and the cells were pelleted by centrifugation at 2000 rpm for 5 minutes at 4° C.
The labeled cell pellet was resuspended in 15 ml of ice-cold PMN Buffer and the cell density was determined using a hemacytometer. Cells were then pelleted by centrifugation at 2000 rpm for 5 minutes followed by resuspension in ice-cold PMN Buffer to 2×10^5 cells/40 μl. The labeled cell suspension was placed in the dark at room temperature while asperlin containing solutions were prepared.
Asperlin was solubilized in 100% DMSO at a concentration of 50 mg/ml. This stock was then diluted to 400 μg/ml with PMN Buffer and serial dilutions of the 400 μg/ml asperlin solution were prepared using PMN buffer containing 2% DMSO to obtain solutions ranging from 200 μg/ml to 1.56 μg/ml. […]

CC(=O)OC1C=CC(=O)OC1C1OC1C [Asperlin, 6,7-Anhydro-2,3,8-trideoxy-D-galacto-oct-2-enoic acidδ-lactone 4-acetate]
% Inhibition of Cell Adhesion (Asperlin 1.56 μg/ml): -8%
Average Percent Cells Bound (Asperlin 1.56 μg/ml): 26%
Bound Cell Fluorescence (Asperlin 1.56 μg/ml): 1551 fluorescence units/well and 1755 fluorescence units/well
Percent Cells Bound (Asperlin 1.56 μg/ml): 25% and 27%
% Inhibition of Cell Adhesion (Asperlin 3.125 μg/ml): -36%
Average Percent Cells Bound (Asperlin 3.125 μg/ml): 33%
Bound Cell Fluorescence (Asperlin 3.125 μg/ml): 1862 fluorescence units/well and 2077 fluorescence units/well
Percent Cells Bound (Asperlin 3.125 μg/ml): 32% and 34%
% Inhibition of Cell Adhesion (Asperlin 6.25 μg/ml): 29%
Average Percent Cells Bound (Asperlin 6.25 μg/ml): 17%
Bound Cell Fluorescence (Asperlin 6.25 μg/ml): 1003 fluorescence units/well and 1161 fluorescence units/well
Percent Cells Bound (Asperlin 6.25 μg/ml): 15% and 19%
% Inhibition of Cell Adhesion (Asperlin 12.5 μg/ml): 50%
Average Percent Cells Bound (Asperlin 12.5 μg/ml): 12%
Bound Cell Fluorescence (Asperlin 12.5 μg/ml): 589 fluorescence units/well and 768 fluorescence units/well
Percent Cells Bound (Asperlin 12.5 μg/ml): 10% and 13%
% Inhibition of Cell Adhesion (Asperlin 25 μg/ml): 83%
Average Percent Cells Bound (Asperlin 25 μg/ml): 4%
Bound Cell Fluorescence (Asperlin 25 μg/ml): 171 fluorescence units/well and 320 fluorescence units/well
Percent Cells Bound (Asperlin 25 μg/ml): 2.6% and 5.3%
% Inhibition of Cell Adhesion (Asperlin 50 μg/ml): 94%
Average Percent Cells Bound (Asperlin 50 μg/ml): 1.4%
Bound Cell Fluorescence (Asperlin 50 μg/ml): 82 fluorescence units/well and 77 fluorescence units/well
Percent Cells Bound (Asperlin 50 μg/ml): 1.4% and 1.3%
% Inhibition of Cell Adhesion (Asperlin 100 μg/ml): 97.5%
Average Percent Cells Bound (Asperlin 100 μg/ml): 0.6%
Bound Cell Fluorescence (Asperlin 100 μg/ml): 45 fluorescence units/well and 31 fluorescence units/well
Percent Cells Bound (Asperlin 100 μg/ml): 0.7% and 0.5%
% Inhibition of Cell Adhesion (Asperlin 200 μg/ml): 98%
Average Percent Cells Bound (Asperlin 200 μg/ml): 0.5%
Bound Cell Fluorescence (Asperlin 200 μg/ml): 29 fluorescence units/well and 28 fluorescence units/well
Percent Cells Bound (Asperlin 200 μg/ml): 0.5%
Effect on adhesion of activated β2 integrin expressing cells to ICAM-1 (in words) (summary of Table I): blocks the adhesion of activated β2 integrin expressing cells to ICAM-1
